“Also recorded” adds a separate entry of the source. Counter-ions that a name gives are not always drawn.
Tests used:
[1] = test system: BV-2 cells; assay: BV-2 phagocytosis assay with apoptotic N2A bait cells (CypHer5); assay type: cell-based, mouse; settings: metabolite cocktail plus CH223191 5 uM
Excerpt: FIG. 32. Outline of phagocytosis assay in BV-2 cells. Briefly, apoptotic N2A cells (“bait”) are generated by UV irradiation and loaded with the pH sensitive dye CypHer5 before co-culture with Hoechst stained BV-2 cells. After washing, BV-2 cells are the collected and analyzed by flow cytometry.
FIG. 33. […] Each bar is the average of 4 separate wells +/−SEM. P-vales calculated using two-way ANOVA.
Finally, we asked whether treatment with metabolites altered the ability of BV-2 microglia to engulf apoptotic N2A cells as outlined above. In this assay the phagocytes (in this case BV-2 cells) are treated with metabolites or vehicle for 120 h and then loaded with Hoechest dye. N2A cells are killed with UV radiation (confirmed by staining with viability dyes and Annexin V to distinguish apoptotic from necrotic cells) and then loaded with the pH sensitive dye CypHer5 which only fluoresces in the phagolysosome. They are then fed to BV-2 cells for a predetermined length of time (5:1 ratio of N2A to BV-2, 1 h of eating) before being harvested and analyzed by flow cytometry (FIG. 32).

[2] = test system: BV-2 cells; assay: AhR blockade of metabolite-induced changes in BV-2 microglia; assay type: cell-based, mouse; settings: metabolite cocktail 32 ug/mL each plus CH223191 5 uM, 5 days
Procedure: FIG. 28. […] Results of AhR blockade on metabolite-induced proliferation and cell surface profile changes in BV-2 microglia. BV-2 cells were treated with vehicle (DMSO), metabolite cocktail (32 ug/mL of each metabolite), or metabolite cocktail with the AhR inhibitor CH223191 (5 uM final concentration in DMSO) for 5 days before performing the same analysis as in slide 5 (CSF1R and F4/80 or Ki67 staining). While the increase in F4/80 and CSF1R intensity is dependent on intact AhR signaling (top row), AhR signaling is dispensable for metabolite-induced proliferation (bottom row). Each bar is the average of 4 separate wells+/−SEM. P-vales calculated using two-way ANOVA.

[3] = test system: BV-2 immortalized mouse microglia; assay: Metabolite time course in BV-2 microglia (Ki67 proliferation, CSF1R and F4/80 surface staining); assay type: cell-based; settings: BV-2 cells, 32 ug/mL of each compound; for proliferation (percent Ki67+ cells): 5 days (120 h); for CSF1R cell surface staining intensity (MFI) / F4/80 cell surface staining intensity (MFI): 5 days
Procedure: FIG. 26. Representation of the outline of metabolite time course experiment utilizing BV-2 immortalized mouse microglia. BV-2 cells are plated with either media alone, or with a cocktail of the 4 metabolites identified in slide 1 at a final concentration of 32 ug/mL of each compound at the indicated time points. Cells are then harvested and stained using conventional methods for either cell surface markers or the proliferation marker Ki67.
FIG. 27. Metabolite treatment increases proliferative capacity and alters the cell surface profile of BV-2 cells. Results of metabolite time course in BV-2 cells. […] Each bar is the average of 4 separate wells+/−SEM. P-vales calculated using two-way ANOVA.
FIG. 29. […] In order to test the ability of the AhR ligand indoxyl sulfate in BV-2 microglia, cells were treated for 5 days with either a cocktail of metabolites or with indoxyl sulfate (32 ug/mL of all compounds tested). […] Each bar is the average of 4 separate wells+/−SEM. P-vales calculated using two-way ANOVA.
Purified cultures, or immortalized equivalents were used. The cells were treated with a cocktail of the 4 metabolites to evaluate microglial response to metabolite treatment (FIG. 26). […] There is a relatively linear effect with increasing proportions of proliferation or F4/80, CSF1R high cells with increasing exposure to the metabolite cocktail.
We next asked if individual metabolites were responsible for the biological activity of the metabolite cocktail or whether multiple metabolites were required.

| Structure (SMILES) | metabolite-induced phagocytosis under AhR inhibition [1] | metabolite-induced phagocytosis under AhR inhibition ([1]; listed as Met+CH) | metabolite-induced increase in CSF1R intensity under AhR inhibition [2] | metabolite-induced increase in F4/80 intensity under AhR inhibition [2] | metabolite-induced proliferation (Ki67) under AhR inhibition [2] | proliferation (percent Ki67+ cells) [3] | proliferation (percent Ki67+ cells) ([3]; listed as IS) | CSF1R cell surface staining intensity (MFI) [3] | F4/80 cell surface staining intensity (MFI) [3] | CSF1R cell surface staining intensity (MFI) ([3]; listed as IS) | F4/80 cell surface staining intensity (MFI) ([3]; listed as IS) |
| --- | --- | --- | --- | --- | --- | --- | --- | --- | --- | --- | --- |
| Cc1ccccc1N=Nc1ccc(NC(=O)c2ccnn2C)c(C)c1 [CH223191] | significance is abolished | NOT dependent on AhR signaling | required for the upregulation of CSF1R and F4/80; also recorded: reduces metabolite induced changes in surface markers | required for the upregulation of CSF1R and F4/80; also recorded: reduces metabolite induced changes in surface markers | dispensable for enhancement of proliferation; also recorded: does not change proliferation | – | – | – | – | – | – |
| O=S(=O)(O)Oc1c[nH]c2ccccc12 [indoxyl sulfate] | – | – | – | – | – | nor does it increase the proliferative capacity | unable to significantly change either cell surface levels of F4/80 or CSF1R or to increase proliferation | does not increase CSF1R or F4/80 protein staining intensity | does not increase CSF1R or F4/80 protein staining intensity | unable to significantly change | unable to significantly change |

Source: patent US20230026402A1, “MICROBIOTA BASED THERAPIES TO PROMOTE MENTAL HEALTH” (Cornell University, priority 2019, published 2023)
